Active and inactive are the calls of the source. The rule behind the calls is not given here.
Columns and labels:
[1] = Cytotoxicity against HUVEC cells assessed as inhibition of cell growth incubated for 72 hrs by MTT assay; type: toxicity, cell-based; conditions: human
[2] = target: Vascular endothelial growth factor receptor 2 (Homo sapiens, UniProt P35968); test: Inhibition of VEGFR2 (unknown origin) at 1 uM by caliper mobility shift assay relative to control
[3] = target: T1, von Hippel-Lindau disease tumor suppressor/Vascular endothelial growth factor receptor 2 (Homo sapiens, UniProt P35968+P40337); test: PROTAC activity at VHL/VEGFR2 in HUVEC cells assessed as reduction in VEGFR2 protein level by measuring maximal efficacy at 0.007 to 10 uM incubated for 24 hrs by Western blot analysis relative to control; type: cell-based; conditions: dose 0.007-10 µM
T1 sequence (P35968 20-1356 limits assumed): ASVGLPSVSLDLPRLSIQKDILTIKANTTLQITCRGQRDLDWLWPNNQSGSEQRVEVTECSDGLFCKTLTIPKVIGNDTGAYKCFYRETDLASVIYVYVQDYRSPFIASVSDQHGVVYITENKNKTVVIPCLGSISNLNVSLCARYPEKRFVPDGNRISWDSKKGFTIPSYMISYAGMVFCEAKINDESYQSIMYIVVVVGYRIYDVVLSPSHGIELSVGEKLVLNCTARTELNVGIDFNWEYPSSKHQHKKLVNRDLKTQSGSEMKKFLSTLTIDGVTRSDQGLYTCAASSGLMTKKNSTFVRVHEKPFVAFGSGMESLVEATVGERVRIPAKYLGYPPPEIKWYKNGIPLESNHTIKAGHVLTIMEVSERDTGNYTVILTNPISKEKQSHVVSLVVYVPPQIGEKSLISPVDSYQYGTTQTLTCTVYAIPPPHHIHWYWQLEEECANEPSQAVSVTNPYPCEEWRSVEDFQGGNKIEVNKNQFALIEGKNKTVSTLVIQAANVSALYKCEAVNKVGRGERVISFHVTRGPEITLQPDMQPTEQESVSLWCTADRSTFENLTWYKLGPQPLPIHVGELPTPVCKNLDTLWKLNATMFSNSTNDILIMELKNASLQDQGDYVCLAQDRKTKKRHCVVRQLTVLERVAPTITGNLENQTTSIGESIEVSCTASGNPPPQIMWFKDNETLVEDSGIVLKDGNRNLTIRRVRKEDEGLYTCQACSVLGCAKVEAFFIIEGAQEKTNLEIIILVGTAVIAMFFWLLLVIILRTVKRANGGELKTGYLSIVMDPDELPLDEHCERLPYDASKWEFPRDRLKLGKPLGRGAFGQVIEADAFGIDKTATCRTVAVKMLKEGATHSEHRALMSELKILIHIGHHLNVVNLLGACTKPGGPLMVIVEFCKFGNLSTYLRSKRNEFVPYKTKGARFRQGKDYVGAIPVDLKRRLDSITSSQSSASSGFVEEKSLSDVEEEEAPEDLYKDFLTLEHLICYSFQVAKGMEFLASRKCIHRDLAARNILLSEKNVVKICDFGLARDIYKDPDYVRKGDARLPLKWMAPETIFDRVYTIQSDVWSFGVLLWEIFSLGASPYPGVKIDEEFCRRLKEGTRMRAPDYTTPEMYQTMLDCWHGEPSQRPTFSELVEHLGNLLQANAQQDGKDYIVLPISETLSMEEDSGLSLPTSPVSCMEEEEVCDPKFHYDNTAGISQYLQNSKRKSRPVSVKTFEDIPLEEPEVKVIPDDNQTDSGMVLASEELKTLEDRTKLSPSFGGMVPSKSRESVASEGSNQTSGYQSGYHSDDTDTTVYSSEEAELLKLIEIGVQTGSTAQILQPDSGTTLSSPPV
T1 sequence (P40337 whole entry partner): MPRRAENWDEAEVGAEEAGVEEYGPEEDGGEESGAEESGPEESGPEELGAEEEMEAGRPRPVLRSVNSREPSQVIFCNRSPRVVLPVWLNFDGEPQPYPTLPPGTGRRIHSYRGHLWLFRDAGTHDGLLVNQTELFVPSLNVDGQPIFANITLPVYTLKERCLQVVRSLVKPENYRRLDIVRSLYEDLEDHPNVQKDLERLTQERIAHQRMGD

[4] = target: T1, von Hippel-Lindau disease tumor suppressor/Vascular endothelial growth factor receptor 2; test: PROTAC activity at VHL/VEGFR2 in HUVEC cells assessed as reduction in VEGFR2 protein level at 10 uM incubated for 24 hrs by Western blot analysis; type: cell-based
[5] = target: T1, von Hippel-Lindau disease tumor suppressor/Vascular endothelial growth factor receptor 2; test: PROTAC activity at VHL/VEGFR2 in human HGC-27 cells assessed as reduction in VEGFR2 protein level at 1 uM by Western blot analysis; type: cell-based; conditions: time 12-36 hrs, TDE = time-dependent effect
[6] = target: T1, von Hippel-Lindau disease tumor suppressor/Vascular endothelial growth factor receptor 2; test: PROTAC activity at VHL/VEGFR2 in human HGC-27 cells assessed as induction of VEGFR2 degradation at 1 uM measured after 4 hrs by Western blot analysis relative to control; type: cell-based
[7] = target: T1, von Hippel-Lindau disease tumor suppressor/Vascular endothelial growth factor receptor 2; test: PROTAC activity at VHL/VEGFR2 in human HGC-27 cells assessed as residual activity by measuring VEGFR2 expression level at 1 uM incubated for 24 hrs followed by compound washout and measured after 8 hrs by Western blot analysis relative to control; type: cell-based
[8] = target: T1, von Hippel-Lindau disease tumor suppressor/Vascular endothelial growth factor receptor 2; test: PROTAC activity at VHL/VEGFR2 in human HGC-27 cells assessed as residual activity by measuring VEGFR2 expression level at 1 uM incubated for 24 hrs followed by compound washout and measured after 36 hrs by Western blot analysis relative to control; type: cell-based
[9] = target: T1, von Hippel-Lindau disease tumor suppressor/Vascular endothelial growth factor receptor 2; test: PROTAC activity at VHL/VEGFR2 in human HGC-27 cells assessed as induction of VEGRF2 protein degradation at 1 uM preincubated with 4-Amino-N-(6-(1-(2-((4-methyl-3-(trifluoromethyl)phenyl)amino)-2-oxoethyl)-1H-pyrazol-4-y1)-1H-indazol-3-Abenzamide for 2 hrs followed by compound addition and measured after 24 hrs by Western blot analysis; type: cell-based
[10] = target: T1, von Hippel-Lindau disease tumor suppressor/Vascular endothelial growth factor receptor 2; test: PROTAC activity at VHL/VEGFR2 in human HGC-27 cells assessed as reduction in VEGFR2 protein expression at 1 uM measured upto 24 hrs in the presence of cycloheximide by Western blot analysis; type: cell-based
[11] = Effect on VEGFR2 mRNA expression in human HGC-27 cells at 0.033 uM incubated for 24 hrs by qPCR analysis relative to control; type: functional
[12] = Effect on VEGFR2 mRNA expression in human HGC-27 cells at 0.1 uM incubated for 24 hrs by qPCR analysis relative to control; type: functional
[13] = Effect on VEGFR2 mRNA expression in human HGC-27 cells at 0.33 uM incubated for 24 hrs by qPCR analysis relative to control; type: functional
HGC-27 [14] = test: Inhibition of cell migration in human HGC-27 cells assessed as suppression of cell migration at 1 uM incubated for 6 hrs by wound healing assay relative to control; type: functional
HGC-27 [15] = test: Inhibition of cell migration in human HGC-27 cells assessed as suppression of cell migration at 3.3 uM incubated for 6 hrs by wound healing assay relative to control; type: functional
HGC-27 [16] = test: Inhibition of cell migration in human HGC-27 cells assessed as suppression of cell migration at 1 uM incubated for 24 hrs by wound healing assay relative to control; type: functional
HGC-27 [17] = test: Inhibition of cell migration in human HGC-27 cells assessed as suppression of cell migration at 3.3 uM incubated for 24 hrs by wound healing assay relative to control; type: functional
HGC-27 [18] = test: Antiinvasive activity in human HGC-27 cells assessed as reduction in number of invasive cells at 0.1 uM incubated for 24 hrs by transwell invasion assay (reference value: 118); type: functional
HGC-27 [19] = test: Antiinvasive activity in human HGC-27 cells assessed as reduction in number of invasive cells at 0.33 uM incubated for 24 hrs by transwell invasion assay (reference value: 118); type: functional
HGC-27 [20] = test: Induction of apoptosis in human HGC-27 cells assessed as early apoptotic cells at 0.033 uM incubated for 24 hrs by Annexin V-FITC/PI staining based analysis (reference value: 1.7 %); type: functional
HGC-27 [21] = test: Induction of apoptosis in human HGC-27 cells assessed as necrotic cells at 0.033 uM incubated for 24 hrs by Annexin V-FITC/PI staining based analysis (reference value: 0.65 %); type: functional
HGC-27 [22] = test: Induction of apoptosis in human HGC-27 cells assessed as late apoptotic cells at 0.1 uM incubated for 24 hrs by Annexin V-FITC/PI staining based analysis (reference value: 3%); type: functional
HGC-27 [23] = test: Induction of apoptosis in human HGC-27 cells assessed as necrotic cells at 0.33 uM incubated for 24 hrs by Annexin V-FITC/PI staining based analysis (reference value: 0.65 %); type: functional
HGC-27 [24] = test: Induction of apoptosis in human HGC-27 cells assessed as early apoptotic cells at 1 uM incubated for 24 hrs by Annexin V-FITC/PI staining based analysis (reference value: 1.7 %); type: functional
HGC-27 [25] = test: Induction of apoptosis in human HGC-27 cells assessed as necrotic cells at 1 uM incubated for 24 hrs by Annexin V-FITC/PI staining based analysis (reference value: 0.65 %); type: functional
HGC-27 [26] = test: Induction of cell cycle arrest in human HGC-27 cells assessed as G0/G1 phase cells at 0.033 uM incubated for 24 hrs by PI staining based flow cytometric analysis (reference value: 47.4%); type: functional
HGC-27 [27] = test: Induction of cell cycle arrest in human HGC-27 cells assessed as S phase cells at 0.033 uM incubated for 24 hrs by PI staining based flow cytometric analysis (reference value: 26.4%); type: functional
HGC-27 [28] = test: Induction of cell cycle arrest in human HGC-27 cells assessed as G2/M phase cells at 0.033 uM incubated for 24 hrs by PI staining based flow cytometric analysis (reference value: 13.3%); type: functional
HGC-27 [29] = test: Induction of cell cycle arrest in human HGC-27 cells assessed as S phase cells at 0.1 uM incubated for 24 hrs by PI staining based flow cytometric analysis (reference value: 26.4%); type: functional
HGC-27 [30] = test: Induction of cell cycle arrest in human HGC-27 cells assessed as G2/M phase cells at 0.1 uM incubated for 24 hrs by PI staining based flow cytometric analysis (reference value: 13.3%); type: functional
HGC-27 [31] = test: Induction of cell cycle arrest in human HGC-27 cells assessed as S phase cells at 0.33 uM incubated for 24 hrs by PI staining based flow cytometric analysis (reference value: 26.4%); type: functional
HGC-27 [32] = test: Induction of cell cycle arrest in human HGC-27 cells assessed as S phase cells at 1 uM incubated for 24 hrs by PI staining based flow cytometric analysis (reference value: 26.4%); type: functional

Sequence of Vascular endothelial growth factor receptor 2 (P35968 whole entry): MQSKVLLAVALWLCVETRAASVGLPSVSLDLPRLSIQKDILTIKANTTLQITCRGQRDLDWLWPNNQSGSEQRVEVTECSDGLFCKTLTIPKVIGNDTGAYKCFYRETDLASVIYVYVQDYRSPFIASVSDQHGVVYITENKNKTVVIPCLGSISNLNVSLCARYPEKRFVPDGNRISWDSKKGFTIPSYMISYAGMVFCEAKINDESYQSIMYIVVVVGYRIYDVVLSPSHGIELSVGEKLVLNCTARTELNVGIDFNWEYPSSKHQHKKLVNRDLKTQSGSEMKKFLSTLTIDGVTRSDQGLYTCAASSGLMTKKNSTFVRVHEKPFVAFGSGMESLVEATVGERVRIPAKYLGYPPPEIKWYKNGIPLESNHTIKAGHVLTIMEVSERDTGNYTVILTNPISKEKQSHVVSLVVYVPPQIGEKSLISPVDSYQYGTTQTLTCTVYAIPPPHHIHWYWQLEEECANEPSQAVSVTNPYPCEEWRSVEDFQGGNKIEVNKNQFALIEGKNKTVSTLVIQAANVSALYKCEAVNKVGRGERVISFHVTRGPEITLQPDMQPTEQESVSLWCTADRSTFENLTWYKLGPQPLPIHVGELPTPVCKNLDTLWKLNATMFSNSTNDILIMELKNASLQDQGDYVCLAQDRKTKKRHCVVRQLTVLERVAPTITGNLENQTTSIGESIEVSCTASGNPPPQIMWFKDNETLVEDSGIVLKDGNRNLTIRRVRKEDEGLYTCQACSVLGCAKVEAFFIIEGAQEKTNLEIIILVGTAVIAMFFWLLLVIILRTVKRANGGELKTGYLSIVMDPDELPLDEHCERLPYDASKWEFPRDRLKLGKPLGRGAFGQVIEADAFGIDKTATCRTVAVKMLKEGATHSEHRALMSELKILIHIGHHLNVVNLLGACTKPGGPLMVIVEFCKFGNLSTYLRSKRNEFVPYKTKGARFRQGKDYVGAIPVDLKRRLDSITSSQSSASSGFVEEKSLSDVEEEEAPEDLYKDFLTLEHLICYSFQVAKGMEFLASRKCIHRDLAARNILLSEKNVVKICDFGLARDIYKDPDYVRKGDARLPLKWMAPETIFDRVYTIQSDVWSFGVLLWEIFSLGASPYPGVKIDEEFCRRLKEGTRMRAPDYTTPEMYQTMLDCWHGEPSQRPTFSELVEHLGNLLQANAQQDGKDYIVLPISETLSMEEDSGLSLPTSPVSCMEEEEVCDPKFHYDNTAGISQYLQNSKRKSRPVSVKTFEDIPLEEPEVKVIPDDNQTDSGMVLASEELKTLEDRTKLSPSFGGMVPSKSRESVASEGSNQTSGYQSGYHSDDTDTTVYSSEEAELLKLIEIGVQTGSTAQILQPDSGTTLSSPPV

Cc1ccc(NC(=O)Cn2cc(-c3ccc4c(NC(=O)c5ccc(NC(=O)CCCCCCCCC(=O)N[C@H](C(=O)N6C[C@H](O)C[C@H]6C(=O)NCc6ccc(-c7scnc7C)cc6)C(C)(C)C)cc5)n[nH]c4c3)cn2)cc1C(F)(F)F
IC50 at 72 h [1]: 7.07 µM
inhibition [2]: 97.5%
Emax [3]: 76.6%
Activity [4]: inactive
Activity [5]: Tde
Activity [6]: 16.9%
Activity [7]: 46%
Activity [8]: 131%
Activity [9]: inactive
Activity [10]: Active
Activity [11]: 99.3%
Activity [12]: 90%
Activity [13]: 83%
inhibition at 1 µM (HGC-27 [14]): 11.7%
inhibition at 3.3 µM (HGC-27 [15]): 12.3%
inhibition at 1 µM (HGC-27 [16]): 21.2%
inhibition at 3.3 µM (HGC-27 [17]): 32.7%
Activity (HGC-27 [18]): 100
Activity (HGC-27 [19]): 36
Activity (HGC-27 [20]): 2%
Activity (HGC-27 [21]): 0.32%
Activity (HGC-27 [22]): 4.2%
Activity (HGC-27 [23]): 0.96%
Activity (HGC-27 [24]): 8.6%
Activity (HGC-27 [25]): 0.64%
Activity (HGC-27 [26]): 41.1%
Activity (HGC-27 [27]): 27.9%
Activity (HGC-27 [28]): 15.7%
Activity (HGC-27 [29]): 25.8%
Activity (HGC-27 [30]): 18.2%
Activity (HGC-27 [31]): 23.4%
Activity (HGC-27 [32]): 28.5%

— ChEMBL document CHEMBL5247592, “Discovery of novel VEGFR-2-PROTAC degraders based on the localization of lysine residues via recruiting VHL for the treatment of gastric cancer” (Eur J Med Chem, 2022)
